Laboratory results from patent US20230085549A1 (Janssen Pharmaceutica NV, priority 2021, published 2023).
Like-named read-outs stand apart in the source and are kept apart here.

Tests used:
[1] = Solubility in solvents and water; type: physicochemical
bacteria = assay: In vitro Ames bacterial reverse mutation test; type: cell-based
mouse lymphoma = assay: Mouse lymphoma assay; type: cell-based
[2] = target: central dopamine D2 receptor (Homo sapiens, UniProt P14416); assay: In vitro receptor binding affinity; conditions: antagonist
α1 adrenergic receptor = assay: In vitro receptor binding affinity; conditions: antagonist
α2 adrenergic receptor = assay: In vitro receptor binding affinity; conditions: antagonist
[3] = test system: cholinergic muscarinic receptors; assay: In vitro receptor binding affinity
β1-adrenergic receptor = β1-adrenergic receptor (Homo sapiens, UniProt P08588); assay: In vitro receptor binding affinity
β2-adrenergic receptor = β2-adrenergic receptor (Homo sapiens, UniProt P07550); assay: In vitro receptor binding affinity
Plasma protein binding = type: in vitro ADME; conditions: racemic
[4] = Study with oral immediate-release 14C-paliperidone (excretion, metabolism); type: in vivo
[5] = Drug interaction studies with oral paliperidone; type: in vivo, human
Source text: Higher doses of paroxetine have not been studied.
This interaction has not been studied with INVEGA HAFYERA.

[6] = test system: cytochrome P450 isozymes, including CYP1A2, CYP2A6, CYP2C8/9/10, CYP2D6, CYP2E1, CYP3A4, and CYP3A5; assay: Inhibition of drug metabolism in human liver microsomes; type: in vitro ADME
[7] = test system: CYP1A2, CYP2A6, CYP2C9, and CYP2C19; assay: CYP substrate studies in vitro; type: in vitro ADME, human
P-glycoprotein (P-gp) = P-glycoprotein (P-gp) (Homo sapiens, UniProt P08183); assay: P-gp substrate and inhibition studies in vitro; type: in vitro ADME
[8] = Pharmacokinetics in specific populations (oral paliperidone studies, population PK modelling); type: in vivo, human; conditions: elderly subjects
Source text: No specific pharmacokinetic studies have been performed with […] in specific populations. All the information is obtained from studies with oral paliperidone or is based on the population pharmacokinetic modelling of oral paliperidone and […].

[9] = test system: pregnant rats and rabbits; assay: Animal reproduction studies, oral paliperidone during organogenesis; type: in vivo; conditions: period of organogenesis, mg/m^2
juvenile rats = assay: Juvenile rat study with oral paliperidone; type: in vivo
rat bone marrow = assay: In vivo rat bone marrow micronucleus test
rats = assay: Oral paliperidone study of fertility in rats; type: in vivo
Description: These parameters were not affected at an oral dose of 0.63 mg/kg, which is half of the oral MRHD of 12 mg based on mg/m^2 body surface area.
(§1) Serum testosterone and sperm parameters partially recovered, but remained decreased after the last observation (two months after treatment was discontinued).

[10] = human, in vivo, po
Source text: Observed signs and symptoms included extrapyramidal symptoms and gait unsteadiness.

[11] = target: central Dopamine type 2 (D2) receptor (Homo sapiens, UniProt P14416); conditions: at paliperidone plasma concentration 7.5 ng/mL; cited from earlier work
clinical = conditions: human, in vivo, po, 4 mg
serotonin 5HT2A receptor = serotonin 5HT2A receptor (Homo sapiens, UniProt P28223); assay: biochemical
[12] = test system: pregnant mice, rats and rabbits; assay: Reproduction toxicity studies with orally administered risperidone; type: in vivo
Source text: Increased neuronal cell death occurred in the fetal brains of the offspring of pregnant rats treated at 0.5 to 1.2 times the MRHD; the postnatal development and growth of the offspring was delayed.

Beagle dogs = assay: Subchronic study in Beagle dogs with risperidone; type: in vivo; conditions: all doses tested ([…]-5.0 mg/kg)
Source text: as §1

Juvenile dogs = assay: Juvenile dog study with oral risperidone, 40 weeks

Chain of P-glycoprotein (P-gp) (P08183 whole entry): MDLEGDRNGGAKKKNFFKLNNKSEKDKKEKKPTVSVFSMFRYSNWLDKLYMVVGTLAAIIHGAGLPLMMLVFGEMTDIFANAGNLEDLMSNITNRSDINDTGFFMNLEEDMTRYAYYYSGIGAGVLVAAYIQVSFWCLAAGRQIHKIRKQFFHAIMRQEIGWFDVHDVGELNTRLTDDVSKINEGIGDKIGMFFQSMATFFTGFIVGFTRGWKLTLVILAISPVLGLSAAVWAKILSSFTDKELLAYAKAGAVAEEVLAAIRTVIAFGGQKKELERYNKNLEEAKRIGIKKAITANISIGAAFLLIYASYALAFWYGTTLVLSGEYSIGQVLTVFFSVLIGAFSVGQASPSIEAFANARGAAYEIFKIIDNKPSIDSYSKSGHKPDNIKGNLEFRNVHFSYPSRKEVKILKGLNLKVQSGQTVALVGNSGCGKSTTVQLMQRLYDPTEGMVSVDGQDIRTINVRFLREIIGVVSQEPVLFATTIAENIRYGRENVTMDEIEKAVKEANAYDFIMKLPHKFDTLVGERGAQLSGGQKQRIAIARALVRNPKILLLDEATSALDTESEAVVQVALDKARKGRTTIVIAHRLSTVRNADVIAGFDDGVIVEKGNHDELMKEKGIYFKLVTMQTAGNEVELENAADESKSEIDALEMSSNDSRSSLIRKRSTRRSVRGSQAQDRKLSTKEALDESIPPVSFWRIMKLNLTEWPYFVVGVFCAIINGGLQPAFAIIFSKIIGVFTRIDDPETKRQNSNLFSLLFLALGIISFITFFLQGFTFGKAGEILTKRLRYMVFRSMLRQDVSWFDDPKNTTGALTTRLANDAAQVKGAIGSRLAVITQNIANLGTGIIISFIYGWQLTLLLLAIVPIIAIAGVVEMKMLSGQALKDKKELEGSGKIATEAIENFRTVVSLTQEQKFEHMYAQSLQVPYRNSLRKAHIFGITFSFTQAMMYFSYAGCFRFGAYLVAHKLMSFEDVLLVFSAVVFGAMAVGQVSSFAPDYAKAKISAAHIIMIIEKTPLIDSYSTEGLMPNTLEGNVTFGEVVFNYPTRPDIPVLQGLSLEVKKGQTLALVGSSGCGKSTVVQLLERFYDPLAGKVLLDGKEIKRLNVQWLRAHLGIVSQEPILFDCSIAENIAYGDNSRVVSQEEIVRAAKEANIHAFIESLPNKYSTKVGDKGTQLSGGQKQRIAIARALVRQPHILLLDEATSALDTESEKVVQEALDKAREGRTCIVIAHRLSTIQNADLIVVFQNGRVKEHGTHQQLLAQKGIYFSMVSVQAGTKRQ
Chain of β2-adrenergic receptor (P07550 whole entry): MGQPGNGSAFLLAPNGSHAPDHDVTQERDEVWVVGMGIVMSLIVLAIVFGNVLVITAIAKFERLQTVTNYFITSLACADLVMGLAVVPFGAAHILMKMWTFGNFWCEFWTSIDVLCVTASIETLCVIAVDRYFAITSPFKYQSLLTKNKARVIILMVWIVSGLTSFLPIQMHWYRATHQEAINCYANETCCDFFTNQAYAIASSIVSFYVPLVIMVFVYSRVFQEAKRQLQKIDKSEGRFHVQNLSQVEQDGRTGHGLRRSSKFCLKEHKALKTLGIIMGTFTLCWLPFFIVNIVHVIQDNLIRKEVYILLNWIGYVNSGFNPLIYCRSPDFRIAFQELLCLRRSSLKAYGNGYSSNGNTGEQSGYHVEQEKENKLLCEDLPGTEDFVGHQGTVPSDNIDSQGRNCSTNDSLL
Chain of serotonin 5HT2A receptor (P28223 whole entry): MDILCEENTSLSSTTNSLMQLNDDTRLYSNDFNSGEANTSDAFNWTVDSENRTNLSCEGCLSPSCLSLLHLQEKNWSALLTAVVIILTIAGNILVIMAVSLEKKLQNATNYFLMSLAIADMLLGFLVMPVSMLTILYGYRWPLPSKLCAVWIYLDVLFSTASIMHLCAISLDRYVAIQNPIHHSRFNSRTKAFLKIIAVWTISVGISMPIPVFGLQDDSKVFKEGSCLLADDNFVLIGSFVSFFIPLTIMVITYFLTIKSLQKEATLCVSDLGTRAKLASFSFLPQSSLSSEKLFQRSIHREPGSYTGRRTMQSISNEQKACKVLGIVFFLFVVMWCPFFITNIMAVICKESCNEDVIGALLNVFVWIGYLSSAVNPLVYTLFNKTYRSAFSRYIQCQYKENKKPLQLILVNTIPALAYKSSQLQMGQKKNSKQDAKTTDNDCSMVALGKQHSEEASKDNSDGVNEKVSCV
Chain of central dopamine D2 receptor (P14416 whole entry): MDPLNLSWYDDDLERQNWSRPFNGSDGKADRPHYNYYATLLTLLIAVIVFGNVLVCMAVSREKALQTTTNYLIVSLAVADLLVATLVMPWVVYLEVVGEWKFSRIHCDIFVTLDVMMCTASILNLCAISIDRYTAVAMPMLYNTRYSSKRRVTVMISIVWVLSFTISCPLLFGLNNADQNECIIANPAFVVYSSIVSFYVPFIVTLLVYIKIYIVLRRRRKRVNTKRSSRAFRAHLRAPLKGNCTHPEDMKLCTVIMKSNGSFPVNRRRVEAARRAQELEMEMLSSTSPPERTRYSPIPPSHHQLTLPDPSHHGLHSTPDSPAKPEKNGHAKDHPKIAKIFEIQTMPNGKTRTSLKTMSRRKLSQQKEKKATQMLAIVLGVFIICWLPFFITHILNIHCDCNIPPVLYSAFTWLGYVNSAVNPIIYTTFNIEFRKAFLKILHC
Chain of central Dopamine type 2 (D2) receptor (P14416 whole entry): as above
Chain of β1-adrenergic receptor (P08588 whole entry): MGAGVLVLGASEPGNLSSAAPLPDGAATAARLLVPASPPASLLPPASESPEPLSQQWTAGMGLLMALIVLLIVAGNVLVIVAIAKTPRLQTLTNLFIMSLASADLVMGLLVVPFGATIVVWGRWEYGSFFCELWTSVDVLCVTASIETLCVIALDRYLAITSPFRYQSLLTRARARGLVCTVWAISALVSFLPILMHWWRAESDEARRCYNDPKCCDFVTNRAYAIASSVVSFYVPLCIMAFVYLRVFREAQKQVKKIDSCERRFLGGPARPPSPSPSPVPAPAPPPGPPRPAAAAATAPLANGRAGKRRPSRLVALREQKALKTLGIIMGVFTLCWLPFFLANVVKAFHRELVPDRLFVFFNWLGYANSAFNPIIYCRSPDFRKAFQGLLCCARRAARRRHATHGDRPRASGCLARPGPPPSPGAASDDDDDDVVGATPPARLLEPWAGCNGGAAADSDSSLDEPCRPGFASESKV

CCCCCCCCCCCCCCCC(=O)OC1CCCn2c1nc(C)c(CCN1CCC(c3noc4cc(F)ccc34)CC1)c2=O (racemic) [paliperidone palmitate, (±)-3-[2-[4-(6-fluoro-1,2-benzisoxazol-3-yl)-1-piperidinyl]ethyl]-6,7,8,9-tetrahydro-2-methyl-4-oxo-4H-pyrido[1,2-c]pyrimidin-9-yl hexadecanoate]
solubility in ethanol and methanol [1]: very slightly soluble | solubility in ethyl acetate [1]: slightly soluble | solubility in polyethylene glycol 400 and propylene glycol [1]: practically insoluble | water solubility [1]: extreme low water solubility | genotoxicity (bacteria): no genotoxicity | genotoxicity (mouse lymphoma): no genotoxicity

Cc1nc2n(c(=O)c1CCN1CCC(c3noc4cc(F)ccc34)CC1)CCCC2O (stereo not drawn) [paliperidone]
Ki [2]: 1.6 to 2.8 nM | Ki (α1 adrenergic receptor): 4 nM | Ki (α2 adrenergic receptor): 17 nM | affinity [3]: no appreciable affinity | affinity (β1-adrenergic receptor): no appreciable affinity | affinity (β2-adrenergic receptor): no appreciable affinity | fraction unbound (Plasma protein binding): 0.26 | dose excreted unchanged into urine ([4]; one week after single oral dose of 1 mg): 59% | administered radioactivity recovered in the feces ([4]; single oral dose of 1 mg): 11% | administered radioactivity recovered in urine ([4]; single oral dose of 1 mg): Approximately 80% | increase in Cmax and AUC of paliperidone ([5]; single 12 mg extended-release tablet with divalproex sodium ER two 500 mg tablets once daily): approximately 50% | increase in renal clearance of paliperidone ([5]; with carbamazepine): 35% | change in mean Cmax and AUC at steady-state ([5]; with paroxetine 20 mg/day oral): increase in mean Cmax and AUC values | inhibition of metabolism of drugs metabolized by cytochrome P450 isozymes [6]: does not substantially inhibit | substrate of CYP isozymes [7]: not a substrate for CYP1A2 | substrate of CYP isozymes ([7]; listed as Paliperidone): not a substrate | P-gp inhibition (P-glycoprotein (P-gp); at high concentrations): weak inhibitor | P-gp substrate (P-glycoprotein (P-gp); in vitro): substrate of P-glycoprotein (P-gp) | increase of Cmax and AUC compared to young subjects [8]: 1.2 fold | exposure without increases in fetal abnormalities [9]: up to 8 times the oral MRHD of 12 mg | no-effect dose for reversible impairment of learning and memory (juvenile rats; females only, oral, days 24 to 73 of age): 0.63 mg/kg/day | doses without other consistent effects on neurobehavioral or reproductive development (juvenile rats; highest dose tested): ≤ 2.5 mg/kg/day | genotoxicity (bacteria): not genotoxic | genotoxicity (mouse lymphoma): not genotoxic | genotoxicity (rat bone marrow): not genotoxic | oral doses at which percentage of treated female rats that became pregnant was not affected (rats; 2 times the oral MRHD of 12 mg): up to 2.5 mg/kg/day | dose with increased pre- and post-implantation loss and slightly decreased live embryos (rats; female, rat, in vivo, po): 2.5 mg/kg | oral dose at which these parameters were not affected (rats; half of the oral MRHD of 12 mg): 0.63 mg/kg | oral doses at which fertility of male rats was not affected (rats; mg/m^2): up to 2 times the oral MRHD of 12 mg/day | highest estimated ingestion in overdose [10]: 405 mg | central D2 receptor occupancy [11]: 60% | Cmax (clinical): 35 ng/mL | Ki (serotonin 5HT2A receptor): 0.8 to 1.2 nM

Cc1nc2n(c(=O)c1CCN1CCC(c3noc4cc(F)ccc34)CC1)CCCC2 [risperidone]
maternal toxicity ([12]; pregnant mice): 4 times the MRHD | learning impaired in adult offspring ([12]; pregnant rats): 0.6 times the MRHD | oral doses at which pup deaths occurred ([12]; rat reproduction studies, mg/m^2): less than the MRHD | doses with no evidence of teratogenicity ([12]; rats and rabbits, embryo-fetal developmental toxicity): up to 6 times the MRHD of 16 mg/day | effect on serum testosterone and sperm (Beagle dogs): decreases in serum testosterone and in sperm motility and concentration | no-effect dose for decreased bone length and density (Juvenile dogs): 0.31 mg/kg/day
